{
  "source": "patent US7795227B2",
  "about": "“Compounds and methods for treating seizure disorders” (Wisconsin Alumni Research Foundation, priority 2004, dated 2010)",
  "key": {"[1]": {"test_system": "kindled seizures evoked by perforant path stimulation", "experiment": "Kindling model of temporal lobe epilepsy, perforant path stimulation", "type": "in vivo, rat", "excerpt": "In the kindling model, repeated activation of neural pathways in vivo induces progressive electrographic and behavioral seizures, permanent increases in susceptibility to additional seizures, and eventually spontaneous seizures (Goddard et al., 1969, Experimental Neurology 25: 295-330; Pinel, 1978, Experimental Neurology 58: 190-202; Wada et al., 1975, Canadian Journal of Neurological Sciences 2: 477-492; Sayin et al. 2003, Journal of Neuroscience 23: 2759-2768). Kindling has become the most extensively studied experimental model of epilepsy (McNamara, 1999, Nature 399: A15-22). In a typical kindling protocol, periodic stimulation delivered once or twice daily gradually evokes an increasing synchronous electrical afterdischarge (AD) or electrographic seizure accompanied by a behavioral seizure. […] Kindling can be induced by electrical or chemical activation of a variety of neural pathways in a range of species that include amphibians, mammals, and primates (Morrell and Tsuru, 1976, Electroencephalography and Clinical Neurophysiology 40: 1-11); Wada and Mizoguchi, 1984; Epilepsia 25: 278-287). Because kindling induces permanent alterations in the brain and can be evoked in a range of species by a variety of stimuli, it has been regarded as a phenomenon of long-term brain plasticity as well as a model of temporal lobe epilepsy. The behavioral features of brief repeated kindled seizures evoked by limbic stimulation resemble human partial complex seizures with secondary generalization. In the early stages of limbic kindling in rodents, each stimulation evokes an AD accompanied by a brief partial seizure, which progresses to stimulus-evoked secondary generalized seizures. This feature is an example of the progressive functional alterations induced by kindling that are epileptogenic.\nAdult male Sprague-Dawley rats (weighing between 250-350 g, obtained from Harlan, Madison, Wis.) were anesthetized with ketamine (80 mg/kg intramuscularly) and xylazine (10 mg/kg intramuscularly), and were stereotactically implanted with an insulated stainless steel bipolar electrode for stimulation and recording. The electrode was implanted in the perforant path (8.1 mm posterior, 4.4 mm lateral, 3.5 mm ventral with respect to bregma), and was fixed to the skull with acrylic. After a two-week recovery period following electrode placement, unrestrained, awake, implanted rats received twice-daily kindling stimulation (5 days per week) with a one-second train of 62-Hertz (Hz) biphasic constant current 1.0-millisecond (ms) square wave pulses to induce kindled seizures. The electroencephalogram was recorded from the bipolar electrode, which was switched to the stimulator for the delivery of kindling stimulation. On the first day of stimulation, each rat received a stimulus train of 500 microAmperes (μA). If an AD was evoked, this intensity was used in subsequent stimulations. If no AD was evoked, the stimulation intensity was increased in a sequence of 500, 700, 900, 1000, 1100, 1200, 1300 and 1400 μA until an AD was evoked. The intensity that initially evoked AD was used for subsequent stimulations. […] If AD was evoked by 3 consecutive stimulations at a given intensity, the stimulation intensity was then decreased by 100 μA decrements. At stimulation intensities below 500 μA, the intensity was decreased in 30 μA decrements. These stimulation procedures deliver stimulation at the lowest intensity required to evoke an AD (Sutula and Steward, 1986, Journal of Neurophysiology 56: 732-746; Cavazos et al., 1991, Journal of Neuroscience 11: 2795-2803).\nThe anticonvulsant and antiepileptic effects of 2-DG were confirmed in rats that experienced kindled seizures evoked by perforant path stimulation according to the protocol noted above. […]"}, "[2]": {"test_system": "rat hippocampal slices (CA3 synchronized burst discharges)", "experiment": "Synchronized bursting induced by elevated [K+]o in hippocampal slices, CA3 extracellular recording", "type": "cell-based", "procedure": "In these experiments, postnatal day 14 to 35 male Sprague-Dawley rats were anesthetized and decapitated. Brains were removed and transferred to ice cold artificial cerebrospinal fluid (ACSF), comprising 124 mM NaCl, 5 mM KCl, 1.25 mM NaH2PO4, 1.5 mM MgSO4, and 26 mM NaHCO3, supplemented with 10 mM glucose), which was continuously bubbled with 95% O2 and 5% CO2. Transverse hippocampal slices (˜400 microns) were prepared on a Leica VT1000s vibratome (Wetzlar Germany). The slices were allowed to recover for 1 hour at room temperature and were then transferred to an interface recording chamber at 34° C. in ACSF with 7.5 mM [K^+]o. Extracellular recordings were made from the CA3 region with an Axioclamp 2B (Axon Instruments, Forest City, Calif.) using a glass microelectrode filled with 150 mM NaCl. Data were recorded and analyzed using PClamp8 (Axon Instruments).\nSynchronized bursting was induced by incubating hippocampal slices in ACSF supplemented with to a final concentration of 7.5 mM [K^+]o, Baseline recordings were obtained after exposure to elevated [K^+]o for 1 hour and the burst frequency had stabilized.\nThe reduction in burst frequency is shown in graphical form in FIG. 7.\nThe effects of glucose deprivation on synchronized burst discharges were examined in rat hippocampal slices ex corpora using the methods described in Example 2. Spontaneous synchronized bursts were recorded in CA3 in ACSF containing 10 mM glucose supplemented with 7.5 mM [K^+]o for ˜1 hr, and then in glucose-free ACSF supplemented with 10 mM lactate or 10 mM pyruvate. […] The interburst interval increased to 24 seconds when the slice was exposed to glucose-free ACSF supplemented with 10 mM lactate, indicating an anticonvulsant effect of glucose deprivation."}, "[3]": {"test_system": "neuropathic pain (mechanical allodynia)", "experiment": "Loose sciatic nerve ligation model of neuropathic pain, Von Frye filament test", "type": "in vivo, rat", "procedure": "The effects of 2-deoxy-D-glucose (2-DG), which has acute anticonvulsant properties in hippocampal slices and prevents the consequences of repeated evoked network synchronization in the kindling model of epilepsy, were evaluated for treatment of neuropathic pain. The effects of 2-DG were examined in the loose sciatic nerve ligation rat model of neuropathic pain. […] Effects of 2-DG on neuropathic pain were assessed by measurement of hindlimb withdrawal latency to mechanical stimulation and development of mechanical allodynia according to standardized methods.\nMale Sprague-Dawley rats (Harlan, 250-350 g) were behaviorally tested by measuring hindlimb withdrawal latency in response to mechanical stimulation of the hindlimb with standardized Von Frye filaments of increasing diameter, in order to verify that all animals initially had normal responses prior to surgical procedures and treatments. In the Von Frye method, animals are placed on a wire mesh floor, and the hindlimb is stroked with standardized filaments of increasing diameter until withdrawal is observed. The size of the filament evoking withdrawal is the Von Frye score. Withdrawal to smaller filaments indicates hyperalgesia, or mechanical allodynia when normally innocuous filaments produce withdrawal, and are regarded as measures of pain. Baseline withdrawal scores were used to assess effects of sciatic ligation and treatment with 2-DG.\nAfter obtaining baseline measurements, animals were then anesthetized with a combination of ketamine 70 mg/kg IP and xylazine […]. The sciatic nerve was exposed at mid-thigh level by blunt dissection through the biceps femoris muscles. […] The incision was closed in layers, and during the immediate post-operative period the animals were monitored for signs of behavior that would signify unexpected and undesirable reaction to the surgical procedure (loss of weight or appetite, lack of grooming or loss of locomotion).\nHindlimb withdrawal responses were assessed postoperatively to verify that mechanical allodynia and hyperalgesia were induced as a result of the surgical ligation. […]"}},
  "note": "Several values for one entry are separate records, joined by “and”; a condition that tells them apart may be missing. Equal values may be shown once. Entries after “also recorded” stand apart in the source; their conditions may differ.",
  "data": [
    {"smiles": "O=CC[C@@H](O)[C@H](O)[C@H](O)CO", "note": "[2-DG, 2-deoxy-D-glucose]", "values": [
      {"measurement": "Duration of anticonvulsant effects after stopping 2-DG", "setting": "[1]; 250 mg/kg twice daily for 3 months, twice daily stimulation continued", "value": "approximately 8 weeks"},
      {"measurement": "Effective dose in rats", "setting": "[1]; intraperitoneal or subcutaneous administration", "value": 250, "unit": "mg/kg"},
      {"measurement": "Time AD threshold remained elevated after stopping twice daily 2-DG", "setting": "[1]; kindled rat, 250 mg/kg IP", "value": "≤ 6", "unit": "weeks"},
      {"measurement": "Effect on AD threshold compared to saline controls", "setting": "[1]; rats n=15 vs saline n=12, p<0.001 ANOVA, FIG. 2A", "value": "increased the AD threshold"},
      {"measurement": "ADs to Class 4", "setting": "[1]; rats, 2-DG 250 mg/kg IP 30 minutes before stimulation", "value": "20.9 +/− 4.0 ADs"},
      {"measurement": "ADs to Class 5 (first Class V generalized tonic clonic seizure)", "setting": "[1]; rats, 2-DG 250 mg/kg IP 30 minutes before stimulation, n=11, p<0.03 vs saline", "value": "27.7±6.0 ADs and 27.7 +/− 6.0 ADs"},
      {"measurement": "ADs to Class 3", "setting": "[1]; rats, 2-DG 250 mg/kg IP 30 minutes before stimulation, number of afterdischarges to reach seizure class", "value": "16.7 +/− 3.1 ADs"},
      {"measurement": "AD threshold during repeated 2-DG administration", "setting": "[1]; single kindled rat, 250 mg/kg IP, from 200 μA, about 2-3 weeks of twice daily stimulation", "value": "~1500", "unit": "μA"},
      {"measurement": "AD threshold after restarting 2-DG", "setting": "[1]; single kindled rat, FIG. 3, 250 mg/kg IP, rose from ~200 μAmps during 2-3 weeks", "value": 1500, "unit": "μAmps"},
      {"measurement": "Progressive reduction in AD threshold with repeated ADs", "setting": "[1]; single rat, FIG. 3, 250 mg/kg IP prior to each stimulation, after the third evoked AD", "value": "appeared to prevent the progressive reduction in AD threshold"},
      {"measurement": "Burst frequency (epileptic bursts) after bath application", "setting": "[2]; 1 mM 2-DG, 7.5 mM [K+]o, FIG. 4B/4C", "value": "reduction in epileptic bursts; also recorded: decreased progressively"},
      {"measurement": "Persistence of anticonvulsant effect after return to ACSF without 2-DG", "setting": "[2]; ACSF with 7.5 mM [K+]o, FIG. 5B", "value": "≤ 60", "unit": "min"},
      {"measurement": "Day of administration after which pain-reducing effects diminished or were extinguished", "setting": "[3]; 250 mg/kg IP", "value": "4 to 5 days and 4 days"},
      {"measurement": "Motor or behavioral impairments", "setting": "[3]; 250 mg/kg IP", "value": "did not result in any apparent motor or behavioral impairments"},
      {"measurement": "Mechanical allodynia (Von Frye score) compared to saline", "setting": "[3]; 250 mg/kg IP 30 minutes prior to testing, n=10, p=0.044 day 1, p<0.001 day 2", "value": "acutely reduced mechanical allodynia"}
    ]},
    {"smiles": "O=C(O)CI", "note": "[iodoacetate, reference compound]", "values": [
      {"measurement": "Synchronized bursting in presence of iodoacetate", "setting": "[2]; 200 uM iodoacetate, ACSF with 10 mM glucose or 10 mM lactate, FIGS. 6 and 7", "value": "reduced synchronized bursting"},
      {"measurement": "Reduction in epileptic bursts with lactate as alternative energy source", "setting": "[2]; iodoacetate, lactate provided, FIG. 7", "value": "persists"}
    ]},
    {"smiles": "CC(O)C(=O)O", "note": "(stereo not drawn) [lactate]", "values": [
      {"measurement": "Interburst interval", "setting": "[2]; glucose-free ACSF with 10 mM substitute energy source, 7.5 mM [K+]o, baseline in 10 mM glucose ~3.8 seconds", "value": 24, "unit": "s"}
    ]}
  ]
}
